Experimental data as given in patent US20250170118A1, “PHARMACEUTICAL COMPOSITION FOR PREVENTING OR TREATING WET AGE-RELATED MACULAR DEGENERATION” (UIF (University Industry Foundation), Yonsei University, priority 2023, published 2025).

Tests used:
Type in all cases: in vivo, C57BL/6 J mice
[1] = tested on: choroidal neovascularization (CNV) mouse model; assay: Laser-induced choroidal neovascularization (CNV) mouse model of wet AMD: size of neovascularization (FFA, Isolectin B4 staining); conditions: 7 days after laser; for size of neovascularization compared to the PBS control group: NMN/NR 500 mg per kg i.p. daily for 10 days, Aflibercept intravitreal, FFA and Isolectin B4 staining, p<0.001 vs PBS
Experimental: (§1) In this study, 8-week-old (18-20 g) C57BL/6 J adult mice were used. The mice were maintained according to the guidelines for the use of animals in ophthalmic and vision research set forth by the Association for Research in Vision and Ophthalmology (ARVO). All animal experiments were approved by the Institutional Animal Care and Use Committee (IACUC) of Yonsei University College of Medicine (IACUC number: 2022-0279). C57BL/6 J mice were maintained on a 12:12 hour light/dark cycle.
(§2) Mice were anesthetized using a 1:1 mixture of tiletamine and zolazepam (15 mg per kg body weight) along with Xylazine hydrochloride (10 mg per kg body weight). The pupils were dilated using Phenylephrine (0.5%) and tropicamide (0.5%). During the anesthesia and pupil dilation, a heating pad was used to maintain the body temperature at 37° C.
(§3) After confirming pupil dilation, the mice were positioned on the support of the laser device (GYC-1000 Specifications, 532 nm). A drop of 2% Hypromellose solution was placed on the corneal surface, and a glass cover slip was positioned to contact the cornea for visualization of the fundus. Additionally, the height and distance of the support were adjusted to ensure the laser was accurately positioned on the retina.
(§4) The settings for the laser used in the experiment were as follows: output: 150 mW/spot size: 50 μm, time: 50 ms. After positioning the optic nerve in the center, the laser direction was indicated using a clock face, applying a total of 4 laser shocks at the 3 o'clock, 6 o'clock, 9 o'clock, and 12 o'clock positions, once each. The successful performance of the laser shock was confirmed by the generation of bubbles in the retina, with no hemorrhage observed in the retina.
(§5) To compare the choroidal neovascularization (CNV) induced by the laser shock, mice were sacrificed 7 days after the laser shock, and to evaluate the fibrosis induced by the laser shock in the sub-retinal area, mice were sacrificed 4 weeks after the laser shock.
In this study, Nicotinamide mononucleotide (NMN) purchased from ORIENTAL YEAST CO and Nicotinamide riboside (NR) purchased from ChromaDex were used. Starting three days before the creation of the laser-induced mouse model, NMN and NR were administered intraperitoneally daily at a concentration of 500 mg per kg of body weight. […]
After the staining process was completed, the flat-mounted tissue was spread on the slide, a drop of mounting media was applied, and a glass cover was placed over it. Fluorescent images were taken using a fluorescence microscope (Olympus; BX43).
(§6) The size of neovascularization and fibrotic areas was measured using ImageJ software. […] Then, a threshold was applied to measure the size, followed by quantification of pixels. […]

subretinal fibrosis = assay: Subretinal fibrosis in laser-induced neovascular wet macular degeneration model (Collagen type I staining, OCT); conditions: for expression of Collagen type 1 compared to the PBS negative control group: 500 mg per kg i.p. daily from three days prior, NMN vs PBS p<0.001, NR vs PBS p<0.002; for production of subretinal fibrosis associated with neovascular macular degeneration: FIG. 3 legend
Experimental: as §1, §2, §3, §4, §5
(§7) In this study, Nicotinamide mononucleotide (NMN) purchased from ORIENTAL YEAST CO and Nicotinamide riboside (NR) purchased from ChromaDex were used. Starting three days before the creation of the laser-induced mouse model, NMN and NR were administered intraperitoneally daily at a concentration of 500 mg per kg of body weight.
(§8) Mice were sacrificed using carbon dioxide, and the extracted eyeballs were fixed in 1% paraformaldehyde for 1 hour. After fixation, they were sequentially treated with 10%, 20%, and 30% sucrose solutions for 1 hour each. For sectioning, the eyeballs were positioned so that the connection between the optic nerve and the center of the cornea was horizontally aligned using OCT compound, and rapid freezing was performed using liquid nitrogen vapor. The eyeballs were stored at −70° C.
(§9) The eyeballs were sectioned to a thickness of […], and thereafter, staining procedures were performed using primary and secondary antibodies. After staining, a drop of mounting media was applied to the tissue on the slide, and a cover glass was placed over it.
For flat mounting, the muscle, cornea, lens, and neural retina were removed. Then, the retinal pigment epithelium/choroid/sclera complex was radially incised eight times to create a petal-like structure. It was placed in a 1 ml microtube and stained with primary and secondary antibodies. […]
as §6

[2] = tested on: senescence markers p16INK4a, p21CIP1, γ-H2AX, p53 and SA-β-gal in retinal pigment epithelium/choroid/sclera complex; assay: Senescence phenotype in laser-induced neovascular wet AMD model (SA-β-gal staining, immunofluorescence of senescence markers)
Experimental: as §1, §2, §3, §4, §7, §8, §9
The primary antibodies used in this study are as follows: Isolectin GS-IB4, Alexa Fluor™ 488 conjugate (121411); Collagen I antibody (ab34710); p16INK4a antibody (ab108349); gamma H2A.X antibody (ab2893); p53 antibody (sc-126); p21CIP1 antibody (sc-6246).
Mouse eyes were enucleated, and the anterior segments were removed to isolate the retinal pigment epithelium/choroid/sclera complex. The complex was rinsed with cold PBS and then fixed at room temperature for 20 minutes using the fixative solution provided in the SA-β-galactosidase (SA-β-GAL) staining kit. Staining was performed using the staining solution mixture provided according to the manufacturer's instructions (BioVision; #K320). After overnight staining at 37° C., the samples were incubated at 55° C. for 45 minutes with 10% H2O2 to remove the pigment. Following rinsing with PBS, the samples were flattened using forceps and a surgical knife. Images were captured using a fluorescent microscope (Olympus; BX43).
SA-β-gal staining analysis, an early method for identifying senescent cells in tissues, was used. Additionally, the expression of senescence markers such as p16INK4a, p21CIP1, γ-H2AX, and p53 is increased in senescent cells. […]

[3] = seventh day post-laser induction, immunofluorescence staining

Molecule | neovascular size compared to the NMN and NR groups ([1]; Aflibercept vs NMN p>0.99, Aflibercept vs NR p>0.99) | size of neovascularization compared to the PBS control group [1] | expression of Collagen type 1 compared to the PBS negative control group (subretinal fibrosis; 28th day post-laser shock) | production of subretinal fibrosis associated with neovascular macular degeneration (subretinal fibrosis) | aging phenotype induced in a neovascular wet AMD model ([2]; FIG. 2 legend) | SA-β-gal staining of the retinal pigment epithelium/choroid/sclera complex compared to the PBS group ([2]; seventh day post-laser induction, NMN 500 mg per kg i.p. daily) | expression of p16INK4a protein compared to PBS [2, 3] | expression of p21CIP1 protein compared to PBS [2, 3] | expression of p53 protein compared to PBS [2, 3] | expression of γ-H2AX protein compared to PBS [2, 3] | fibrosis by OCT and immunofluorescence staining on sections compared to the negative control group (subretinal fibrosis; 28th day post-laser shock, 500 mg per kg i.p. daily)
Aflibercept [reference compound] | no significant difference | significant reduction | – | – | – | – | – | – | – | – | –
NC(=O)c1ccc[n+]([C@@H]2O[C@H](CO)[C@@H](O)[C@H]2O)c1 [NR, nicotinamide riboside] | – | significantly reduced | significantly reduced | inhibit | – | – | – | – | – | – | –
nicotinamide mononucleotide [NMN] | – | significantly reduced | significantly reduced | inhibit | inhibits | reduced | decreased | decreased | decreased | decreased | reduced
